Key:
Format in all cases: cell-based
human myoblasts [1] = assay: Introduction of GFP viral vector (polybrene method), yield of GFP-positive cells; conditions: calcitriol 1 μM; viral vector MOI 0.1, 5 or 10, polybrene 0, 5 or 10 μg/mL; depending on the transduction conditions
Experimental: Human mesenchymal stem cells were seeded in a 6-well plate to be about 2,000 cells/cm^2. Human myoblasts were seeded in another 6-well plate to be about 2,000 cells/cm^2. As a culture solution, a basal medium for each cell supplemented with JSH-23 was used. JSH-23 was added at 1 μM to the culture solution used for human mesenchymal stem cells, and at 0.1 μM to the culture solution used for human myoblasts. As a control, a basal medium, i.e., αMEM (+10% serum) for human mesenchymal stem cells and MCDB131 (+10% serum) for human myoblasts, to which 0.1% (v/v) DMSO instead of JSH-23 was added was used as a culture solution.
A mixed solution was prepared by mixing GFP viral vector and a polybrene solution. […]
Next, the above mixed solution was added to the plate seeded with human mesenchymal stem cells or human myoblasts, and cultured in a CO2 incubator at 37° C. for 24 hours.
Four days after the addition of the virus-free culture solution, the cells were detached with a cell detachment solution and centrifuged at 600×g for 5 minutes using a centrifuge, to collect the cells. The collected cells were counted using a hemocytometer. Furthermore, the GFP-positive percentage of the collected cells was measured using a flow cytometer. The yield of the number of GFP-positive cells was calculated from the number of cells counted and the GFP-positive percentage. […]

human myoblasts [2] = assay: Introduction of GFP mRNA by lipofection, yield of GFP-positive cells; conditions: calcitriol 1 μM
Experimental: (§1) Human mesenchymal stem cells were seeded in a 6-well plate to be about 10,000 cells/cm^2. Human myoblasts were seeded in another 6-well plate to be about 20,000 cells/cm^2. As a culture solution, a basal medium for each cell supplemented with 0.1, 1, or 10 μM of JSH-23 was used. As a control, a basal medium for each cell supplemented with 0.1% (v/v) DMSO instead of JSH-23 was used as a culture solution.
(§2) A lipofection solution was prepared by adding Lipofectamine RNAiMAX and fluorescent protein GFP mRNA to OptiMEM. As the GFP mRNA, that containing uridine or that containing pseudouridine instead of uridine was used. In addition, for those containing pseudouridine, a basal medium for each cell supplemented with 1 μM of JSH-23 was used, and as a control, a basal medium for each cell supplemented with 0.1% (v/v) DMSO instead of JSH-23 was used as a culture solution. It was prepared so that the amount of mRNA was 10 pg/cell for human mesenchymal stem cells and 5 pg/cell for human myoblasts. The prepared lipofection solution was mixed well according to the manufacturer's recommended protocol and allowed to stand at room temperature for about 15 minutes.
(§3) Next, each lipofection solution was added to the plate seeded with human mesenchymal stem cells or human myoblasts, and cultured in a CO2 incubator at 37° C. for about 1 day (18 hours) (human mesenchymal stem cells) or for 2 days (42 hours) (human myoblasts). After culturing, all the culture solution comprising the lipofection solution was removed and replaced with a new culture solution having the same composition as before the addition of the lipofection solution.
(§4) After another 6 hours, the above lipofection solution was newly prepared, added again to the plate seeded with human mesenchymal stem cells or human myoblasts, and cultured in a CO2 incubator at 37° C. for about 1 day (18 hours) (mesenchymal stem cells) or about 2 days (42 hours) (human myoblasts). These steps were repeated so that the introduction of genes was performed a total of 4 times.
(§5) Twenty-four hours after the final introduction of genes, the cells were detached with a cell detachment solution, centrifuged at 600×g for 5 minutes using a centrifuge, to collect the cells. The collected cells were counted using a hemocytometer. Furthermore, the GFP-positive percentage of the collected cells was measured using a flow cytometer. The yield of the number of GFP-positive cells was calculated from the number of cells counted and the GFP-positive rate.
(§6) Human mesenchymal stem cells were seeded in a 6-well plate to be about 10,000 cells/cm^2. Human myoblasts were seeded in another 6-well plate to be about 20,000 cells/cm^2. As a culture solution, a basal medium for each cell supplemented with 1 μM of calcitriol was used. As a control, a basal medium for each cell supplemented with 0.1% (v/v) DMSO instead of calcitriol was used as a culture solution.
(§7) A lipofection solution was prepared by adding Lipofectamine RNAiMAX and fluorescent protein GFP mRNA to OptiMEM. As the GFP mRNA, that containing uridine, or that containing pseudouridine instead of uridine was used. It was prepared so that the amount of mRNA was 10 pg/cell for human mesenchymal stem cells and 5 pg/cell for human myoblasts. The prepared lipofection solution was mixed well according to the manufacturer's recommended protocol and allowed to stand at room temperature for about 15 minutes.

[3] = system: human mesenchymal stem cells; assay: as above; conditions: calcitriol 1 μM; GFP mRNA containing pseudouridine instead of uridine, 10 pg/cell
Experimental: as §1, §2, §3, §4, §5, §6, §7

[4] = system: human mesenchymal stem cells; assay: Introduction of GFP mRNA with PEIMAX and other NFκB nuclear translocation inhibitors (Example 13), cell yield; conditions: GFP mRNA 10 pg/cell, PEIMAX
Experimental: Improvement in the yield of transgenic cells was investigated when using the NFκB nuclear translocation inhibitor of the present invention other than JSH-23 and calcitriol. Introduction of genes was performed using vitamin B6, vitamin C, vitamin E, and rolipram as an NFκB nuclear translocation inhibitor other than JSH-23 and calcitriol. The specific procedure is as follows.
Human mesenchymal stem cells were seeded in a 6-well plate to be about 10,000 cells/cm^2. As a culture solution, a basal medium supplemented with vitamin B6 and vitamin E at 2 μM and 10 μM, vitamin C at 20 μM and 100 μM, and rolipram at 10 μM was used. As a control, the basal medium for each cell supplemented with 0.1% (v/v) DMSO instead of each compound was used as a culture solution.
A lipofection solution was prepared by adding PEIMAX and fluorescent protein GFP mRNA to OptiMEM. It was prepared so that the amount of mRNA was 10 pg/cell. […]
Twenty-four hours after the final introduction of genes, the cells were detached with a cell detachment solution, centrifuged at 600×g for 5 minutes using a centrifuge, to collect the cells. In addition, the collected cells were counted using a hemocytometer. Furthermore, the GFP-positive percentage of the collected cells was measured using a flow cytometer. The yield of the number of GFP-positive cells was calculated from the number of cells counted and the GFP-positive percentage.

## C=C1/C(=C\C=C2/CCC[C@]3(C)[C@@H]([C@H](C)CCCC(C)(C)O)CC[C@@H]23)C[C@@H](O)C[C@@H]1O [calcitriol]
Human myoblasts [1]
  increase of the number of GFP-positive cells by adding calcitriol: about 4.5 times
Human myoblasts [2]; GFP mRNA containing pseudouridine instead of uridine, 5 pg/cell
  yield of GFP-positive cells compared to the control (control set to 1): ≥ 4 times
Human myoblasts [2]; GFP mRNA containing uridine, 5 pg/cell, second statement of b89
  yield of GFP-positive cells compared to the control (control set to 1): ≥ 5 times
Human myoblasts [2]; GFP mRNA containing uridine, first statement of b89, printed as human myoblasts
  yield of GFP-positive cells compared to the control (control set to 1): ≥ 7 times
[3]
  yield of GFP-positive cells compared to the control (control set to 1): ≥ 2.7 times

## COc1ccc(C2CNC(=O)C2)cc1OC1CCCC1 (stereo not shown) [rolipram]
[4]; compound at 10 μM
  number of viable cells after introduction of genes relative to control (set to 1): about 1.3 times

## Cc1ncc(CO)c(CO)c1O.Cl [vitamin B6]
[4]; compound at 2 μM and 10 μM
  number of viable cells after introduction of genes relative to control (set to 1): about 1.2 times
